Measured values reported in US8039495B2, “Biphenyl carboxylic acids and bioisosteres as glycogen synthase activators” (Hoffman-La Roche Inc., priority 2009, dated 2011).

Tested on: glycogen synthase
Experiment: Glycogen Synthase (GS) Assay
Type: biochemical
Conditions: for EC50: compound concentration needed to give 50% maximum activation; for GS SC200: compound concentration needed to stimulate 200% of the enzyme activity
Protocol: Twelve μL per well of substrate solution containing glycogen (4.32 mg/ml), 2.67 mM UDP-glucose, 21.6 mM phospho(enol)pyruvate and 2.7 mM NADH in 30 mM glycylglycine, pH 7.3 buffer was added into a polystyrene 384-well assay plate (BD Biosciences).
Compound solutions (8 μL/well) at various concentrations (0-300 μM) were added to the assay plate (columns 5-24). Compound solution contains 30 mM glycylglycine, pH 7.3, 40 mM KCl, 20 mM MgCl2, 9.2% DMSO, with (columns 15-24) or without (columns 5-14) 20 mM glucose 6-phosphate.
Enzyme solution (12 μL/well) containing glycogen synthase (16.88 μg/ml), pyruvate kinase (0.27 mg/ml), lactate dehydrogenase (0.27 mg/ml) in 50 mM Tris-HCl, pH 8.0, 27 mM DTT and bovine serum albumin (BSA, 0.2 mg/ml) was added to the assay plate (columns 3-24). As a blank control, enzyme solution without glycogen synthase was added into the top half wells of columns 1-2. To the bottom half wells of columns 1-2 were added a known activator, glucose 6-phosphate (at final concentration 5 mM) in addition to the enzyme solution. The reaction mixture was incubated at room temperature. The assay plate was then read for absorbance at 340 nm on an Envision reader every 3 minutes up to a total of 15 minutes.
The enzyme activity (with or without compound) was calculated by the reaction rate and represented by the optical density change (δOD) per minute. Percent stimulation of glycogen synthase activity by a compound at various concentrations was calculated by the following formula: % stimulation=100*Rs/Rt,
Where Rs is the reaction rate of the enzyme in the presence of compound and Rt is the reaction rate of the enzyme in the absence of compound.
SC200 is defined as the compound concentration that is needed to stimulate 200% of the enzyme activity. EC50 is defined as the compound concentration that is needed to give 50% maximum activation.

| SMILES | EC50 [µM] | GS SC200 [µM] |
| --- | --- | --- |
| O=C(O)[C@@H]1CCCN1C(=O)c1cccc(COc2ccc(-c3ccc(F)cc3F)cc2)c1 [Example 1, (S)-1-[3-(2′,4′-Difluoro-biphenyl-4-yloxymethyl)-benzoyl]-pyrrolidine-2-carboxylic acid] | 0.12 | 0.02 |
| COc1cc(F)c(F)cc1-c1ccc(OCc2cccc(C(=O)N3CCC[C@H]3C(=O)O)c2)cc1 [Example 2, (S)-1-[3-(4′,5′-Difluoro-2′-methoxy-biphenyl-4-yloxymethyl)-benzoyl]-pyrrolidine-2-carboxylic acid] | 0.14 | 0.02 |
| Cc1cc(F)c(F)cc1-c1ccc(OCc2cccc(C(=O)N3CCC[C@H]3C(=O)O)c2)cc1 [Example 3, (S)-1-[3-(4′,5′-Difluoro-2′-methyl-biphenyl-4-yloxymethyl)-benzoyl]-pyrrolidine-2-carboxylic acid] | 0.04 | 0.001 |
| Cc1cc(F)c(F)cc1-c1ccc(OCc2cccc(C(=O)N(C)CC(=O)O)c2)cc1 [Example 4, {[3-(4′,5′-Difluoro-2′-methyl-biphenyl-4-yloxymethyl)-benzoyl]-methyl-amino}-acetic acid] | 0.08 | 0.01 |
| CN(CC(=O)NS(C)(=O)=O)C(=O)c1cccc(COc2ccc(-c3cc(F)c(F)cc3F)cc2)c1 [Example 5, N-(2-Methanesulfonylamino-2-oxo-ethyl)-N-methyl-3-(2′,4′,5′-trifluoro-biphenyl-4-yloxymethyl)-benzamide] | 0.2 | 0.07 |
| O=C(c1cccc(COc2ccc(-c3cc(F)c(F)cc3F)cc2)c1)N1CCC[C@H]1c1nnn[nH]1 [Example 6, [(S)-2-(1H-Tetrazol-5-yl)-pyrrolidin-1-yl]-[3-(2′,4′,5′-trifluoro-biphenyl-4-yloxymethyl)-phenyl]-methanone] | 2.1 | 0.59 |
| COc1cc(F)c(F)cc1-c1ccc(OCc2cccc(C(=O)N(C)CC(=O)O)c2)cc1 [Example 7, {[3-(4′,5′-Difluoro-2′-methoxy-biphenyl-4-yloxymethyl)-benzoyl]-methyl-amino}-acetic acid] | 0.1 | 0.02 |
| COc1cc(F)c(F)cc1-c1ccc(OCc2cccc(C(=O)N(CC(=O)O)C(C)(C)C)c2)cc1 [Example 8, {tert-Butyl-[3-(4′,5′-difluoro-2′-methoxy-biphenyl-4-yloxymethyl)-benzoyl]-amino}-acetic acid] | 0.2 | 0.01 |
| COc1cc(F)c(F)cc1-c1ccc(OCc2nc(C(=O)N(CC(=O)O)C(C)(C)C)cs2)cc1 [Example 9, {tert-Butyl-[2-(4′,5′-difluoro-2′-methoxy-biphenyl-4-yloxymethyl)-thiazole-4-carbonyl]-amino}-acetic acid] | 0.11 | 0.01 |
| CN(CC(=O)O)C(=O)c1cccc(COc2ccc(-c3cc(F)c(F)cc3F)cc2)c1 [Example 10, {Methyl-[3-(2′,4′,5′-trifluoro-biphenyl-4-yloxymethyl)-benzoyl]-amino}-acetic acid] | 0.1 | 0.04 |
| COc1cc(F)c(F)cc1-c1ccc(OCc2cccc(C(=O)N(C)CC(=O)O)c2)cc1F [Example 11, {Methyl-[3-(2,4′,5′-trifluoro-2′-methoxy-biphenyl-4-yloxymethyl)-benzoyl]-amino}-acetic acid] | 0.16 | 0.01 |
| O=C(NS(=O)(=O)C1CC1)c1cccc(COc2ccc(-c3cc(F)c(F)cc3F)cc2)c1 [Example 12, Cyclopropanesulfonic acid 3-(2′,4′,5′-trifluoro-biphenyl-4-yloxymethyl)-benzoylamide] | 0.69 | 0.14 |
| COc1cc(F)c(F)cc1-c1ccc(OCc2cc(C(=O)N(C)CC(=O)O)ccc2F)cc1 [Example 13, {[3-(4′,5′-Difluoro-2′-methoxy-biphenyl-4-yloxymethyl)-4-fluoro-benzoyl]-methyl-amino}-acetic acid] | 0.08 | 0.004 |
| CN(CC(=O)O)C(=O)c1cccc(COc2ccc(-c3cc(F)c(F)cc3F)cc2F)c1 [Example 14] | 0.1 | 0.01 |
| COc1cc(F)c(F)cc1-c1ccc(OCc2cccc(C(=O)N3CCC[C@@H]3C(=O)O)c2)cc1 [Example 15, (R)-1-[3-(4′,5′-Difluoro-2′-methoxy-biphenyl-4-yloxymethyl)-benzoyl]-pyrrolidine-2-carboxylic acid] | 0.22 | 0.05 |
